# Assay results reported in patent US20130122541A1, “MICROORGANISM PRODUCTION OF HIGH-VALUE CHEMICAL PRODUCTS, AND RELATED COMPOSITIONS, METHODS AND SYSTEMS” (The Regents of the University of Colorado, priority 2010, published 2013).
# Read-outs that look alike come from different tables or passages of the source.
# What was measured:
# [1] = system: Yeast strains (S288C background); test: microbe, parasite or virus in culture; assay type: cell-based, Saccharomyces cerevisiae; conditions: for MIC: Saccharomyces cerevisiae
# Protocol: The minimum inhibitory concentration (MIC) was determined aerobically in a 96 well-plate format. […] Media supplements were added according to levels reported in the Supplements Table, where specified. Overnight cultures of strains were grown in triplicate in 5 mL SD media with vitamins (Methods in Enzymology vol. 350, page 17 (2002)). A 1% (v/v) inoculum was introduced into a 5 ml culture of SD minimal media without vitamins. After the cells reached mid-exponential phase, the culture was diluted to an OD600 of 0.200. The cells were further diluted 1:5 and a 10 μL aliquot was used to inoculate each well of a 96 well plate (˜10^4 cells per well) to total volume of 100 uL. […] Plates were incubated for 72 hours at 30 C.
# [2] = system: E. coli K12+pSMART-LC-Kan-cynTS; assay type: cell-based; conditions: Escherichia coli, 24 h, read-out: Minimum inhibitory concentration (MIC) of 3-HP for E. coli K12+pSMART-LC-Kan-cynTS in M9 minimal media
# Protocol: Overnight cultures of strains were grown in 5 ml LB (with antibiotic where appropriate) at 37° C. in a shaking incubator. A 1 v/v % was used to inoculate 10 mL of M9 minimal media. After the cells reached mid-exponential phase, the culture was diluted to an OD600 of 0.200. The cells were further diluted 1:20 and a 10 ul aliquot was used to inoculate each well (˜10^4 cells per well). […] The MIC endpoint is the lowest concentration of compound at which there was no visible growth.
# Purified plasmid was retransformed into E. coli K12 by standard techniques and MIC measured as described in Example 37.
# E. coli = test: microbe, parasite or virus in culture; assay type: cell-based; conditions: for % Increase Over Control: anaerobic; for MIC: Escherichia coli
# Protocol: For MIC evaluations, the final results are expressed in chemical agent concentrations determined by analysis of the stock solution by HPLC (i.e., see Subsection IIIb).
# The minimum inhibitory concentration (MIC) was determined anaerobically in a 96 well-plate format. […] Media supplements were added according to levels reported in the Supplements Table, where specified. Overnight cultures of strains were grown in triplicate in 5 mL LB (with antibiotic where appropriate). A 1% (v/v) inoculum was introduced into a 5 ml culture of M9 minimal media.
smiles,measurement,setting,value
"O=C(O)CCO [3-HP, 3-hydroxypropionic acid]",% Increase Over Control,"[1]; S288C, SC media vs SD control, aerobic",33%
same,MIC,"[1]; read-out: Average MIC Assay Result (g/L 3-HP), S288C, SC media, supplements none, aerobic",60 g/L
same,MIC,"[1]; read-out: Average MIC Assay Result (g/L 3-HP), S288C, SD media, supplements none (control), aerobic",45 g/L
same,MIC,"[1]; read-out: MIC Assay Result (g/L 3-HP), strain YX-022 (BY4722, pyes2.1-Aro3 pRS425-ILV6), SD, aerobic",60 g/L
same,MIC,"[1]; read-out: MIC Assay Result (g/L 3-HP), strain YX-CJR-001 (BY4709, pRS426 EV, control), SD, aerobic",40 g/L
same,MIC,"[1]; read-out: MIC Assay Result (g/L 3-HP), strain YX-CJR-002 (BY4709, pYes2.1-spe3), SD, aerobic",50 g/L
same,MIC,"[1]; read-out: MIC Assay Result (g/L 3-HP), strain YX-CJR-003 (BY4709, pYes2.1-hom2), SD, aerobic",47 g/L
same,MIC,"[1]; read-out: MIC Assay Result (g/L 3-HP), strain YX-CJR-005 (BY4709, pYes2.1-Met6), SD, aerobic",50 g/L
same,MIC,"[1]; read-out: MIC Assay Result (g/L 3-HP), strain YX-CJR-006 (BY4709, pYes2.1-Ilv2), SD, aerobic",57 g/L
same,MIC,"[1]; read-out: MIC Assay Result (g/L 3-HP), strain YX-CJR-010 (BY4709, pyes2.1-Thr1), SD, aerobic",60 g/L
same,MIC,"[1]; read-out: MIC Assay Result (g/L 3-HP), strain YX-CJR-014 (BY4709, pyes2.1-arg2), SD, aerobic",60 g/L
same,MIC,"[1]; read-out: MIC Assay Result (g/L 3-HP), strain YX-CJR-017 (BY4709, pyes2.1-Aro7), SD, aerobic",70 g/L
same,% Increase Over Control,"[1]; strain YX-022 (pyes2.1-Aro3 pRS425-ILV6) vs control, aerobic",50%
same,% Increase Over Control,"[1]; strain YX-CJR-002 (pYes2.1-spe3) vs YX-CJR-001, aerobic",25%
same,% Increase Over Control,"[1]; strain YX-CJR-003 (pYes2.1-hom2) vs YX-CJR-001, aerobic",17%
same,% Increase Over Control,"[1]; strain YX-CJR-005 (pYes2.1-Met6) vs YX-CJR-001, aerobic",25%
same,% Increase Over Control,"[1]; strain YX-CJR-006 (pYes2.1-Ilv2) vs YX-CJR-001, aerobic",42%
same,% Increase Over Control,"[1]; strain YX-CJR-010 (pyes2.1-Thr1) vs YX-CJR-001, aerobic",50%
same,% Increase Over Control,"[1]; strain YX-CJR-014 (pyes2.1-arg2) vs YX-CJR-001, aerobic",50%
same,% Increase Over Control,"[1]; strain YX-CJR-017 (pyes2.1-Aro7) vs YX-CJR-001, aerobic",75%
same,MIC,[2],50 mg/mL
same,% Increase Over Control,"E. coli; BW25113, EZ Rich media vs M9 control",150%
same,MIC,"E. coli; BW25113, read-out: MIC Assay Result (g/L 3-HP), BW25113, EZ Rich media, supplements none, anaerobic",75 g/L
same,MIC,"E. coli; BW25113, read-out: MIC Assay Result (g/L 3-HP), BW25113, M9, supplements none (control), anaerobic",30 g/L
same,MIC,"E. coli; BW25113, read-out: MIC Assay Result (g/L 3-HP), anaerobic, strain BX_00002.0: BW25113 wild type, pKK223-mcs1 (control), M9 + Amp (100 μg/mL)",15 g/L
same,MIC,"E. coli; BW25113, read-out: MIC Assay Result (g/L 3-HP), anaerobic, strain BX_00003.0: BW25113 wild type, pBT-3 (control), M9 + Cm (20 μg/mL)",15 g/L
same,MIC,"E. coli; BW25113, read-out: MIC Assay Result (g/L 3-HP), anaerobic, strain BX_00118.0: BW25113 wild type, pJ251 (control), M9 + Kan (20 μg/mL)",15 g/L
same,MIC,"E. coli; BW25113, read-out: MIC Assay Result (g/L 3-HP), anaerobic, strain BX_00138.0: BW25113 wild type, pSmart-LC-Kan (control), M9 + Kan (20 μg/mLl)",25 g/L
same,MIC,"E. coli; BW25113, read-out: MIC Assay Result (g/L 3-HP), anaerobic, strain BX_00144.0: BW25113 wild type, pSmart-HC-Amp (control), M9 + Amp (100 μg/mL)",25 g/L
same,MIC,"E. coli; BW25113, read-out: MIC Assay Result (g/L 3-HP), anaerobic, strain BX_00319.0: BW25113 wild type, pK223-aroH, M9 + Amp 100 μg/mL + 1 mM IPTG",20 g/L
same,MIC,"E. coli; BW25113, read-out: MIC Assay Result (g/L 3-HP), anaerobic, strain BX_00320.0: BW25113 wild type, pK223-metE C645A, M9 + Amp 100 μg/mL + 1 mM IPTG",20 g/L
same,MIC,"E. coli; BW25113, read-out: MIC Assay Result (g/L 3-HP), anaerobic, strain BX_00322.0: BW25113 wild type, pJ61-speFED, M9 + Kan 20 μg/mL",25 g/L
same,MIC,"E. coli; BW25113, read-out: MIC Assay Result (g/L 3-HP), anaerobic, strain BX_00323.0: BW25113 wild type, pJ61-aroG, M9 + Kan 20 μg/mL",20 g/L
same,MIC,"E. coli; BW25113, read-out: MIC Assay Result (g/L 3-HP), anaerobic, strain BX_00324.0: BW25113 wild type, pJ61-thrA, M9 + Kan 20 μg/mL",20 g/L
same,MIC,"E. coli; BW25113, read-out: MIC Assay Result (g/L 3-HP), anaerobic, strain BX_00325.0: BW25113 wild type, pJ61-asd, M9 + Kan 20 μg/mL",20 g/L
same,MIC,"E. coli; BW25113, read-out: MIC Assay Result (g/L 3-HP), anaerobic, strain BX_00326.0: BW25113 wild type, pJ61-ilvA, M9 + Kan 20 μg/mL",20 g/L
same,MIC,"E. coli; BW25113, read-out: MIC Assay Result (g/L 3-HP), anaerobic, strain BX_00327.0: BW25113 wild type, pJ61-cysM, M9 + Kan 20 μg/mL",20 g/L
same,MIC,"E. coli; BW25113, read-out: MIC Assay Result (g/L 3-HP), anaerobic, strain BX_00357.0: BW25113 wild type, pKK223-aroH*445, M9 + Amp 100 μg/mL + 1 mM IPTG",20 g/L
same,MIC,"E. coli; BW25113, read-out: MIC Assay Result (g/L 3-HP), anaerobic, strain BX_00358.0: BW25113 wild type, pKK223-aroH*447, M9 + Amp 100 μg/mL + 1 mM IPTG",20 g/L
same,MIC,"E. coli; BW25113, read-out: MIC Assay Result (g/L 3-HP), anaerobic, strain BX_00359.0: BW25113 wild type, pKK223-aroH*457, M9 + Amp 100 μg/mL + 1 mM IPTG",20 g/L
same,MIC,"E. coli; BW25113, read-out: MIC Assay Result (g/L 3-HP), anaerobic, strain BX_00360.0: BW25113 wild type, pACYC177 (Kan only)-cynTS, M9 + Kan 20 μg/mL",20 g/L
same,MIC,"E. coli; BW25113, read-out: MIC Assay Result (g/L 3-HP), anaerobic, strain BX_00362.0: BW25113 wild type, pACYC177 (Kan only)-aroH, M9 + Kan 20 μg/mL + 1 mM IPTG",20 g/L
same,MIC,"E. coli; BW25113, read-out: MIC Assay Result (g/L 3-HP), anaerobic, strain BX_00363.0: BW25113 wild type, pACYC177 (Kan only)-speB, M9 + Kan 20 μg/mL",20 g/L
same,MIC,"E. coli; BW25113, read-out: MIC Assay Result (g/L 3-HP), anaerobic, strain BX_00364.0: BW25113 wild type, pACYC177 (Kan only)-metE, M9 + Kan 20 μg/mL + 1 mM IPTG",20 g/L
same,MIC,"E. coli; BW25113, read-out: MIC Assay Result (g/L 3-HP), anaerobic, strain BX_00365.0: BW25113 wild type, pACYC177 (Kan only)-metC, M9 + Kan 20 μg/mL",20 g/L
same,MIC,"E. coli; BW25113, read-out: MIC Assay Result (g/L 3-HP), anaerobic, strain BX_00368.0: BW25113 wild type, pBT-3-cynTS, M9 + Cm (20 μg/mL)",20 g/L
same,MIC,"E. coli; BW25113, read-out: MIC Assay Result (g/L 3-HP), anaerobic, strain BX_00426.0: BW25113 ΔnrdR::frt, pSmart-HC-Amp-cadA, M9 + Amp (100 μg/mL)",26.7 g/L
same,% Increase Over Control,E. coli; strain BX_00311.0 (pSmart-LC-Kan-glyA-ORF),20%
